Results as given in US6174875A, “Benzoquinoid ansamycins for the treatment of cardiac arrest and stroke” (priority 1999, dated 2001).

Key:
[1] = tested on: myogenic H9c2 cells and cardiomyocytes; conditions: pretreatment; cited from earlier work
hsp70 in HT22 cells = assay: Western blot of inducible hsp70 expression in HT22 cells; assay type: cell-based, mouse
Procedure: (§1) Cells were harvested and lysed by sonication in 0.25 M Tris-HCl, pH 7.5 and lysates clarified by centrifugation at 14,000 rpm for 10 minutes at 4 ° C. Equivalent amounts of lysate protein (5 μg) were used for Western blot analysis as described by Xiao et al. (1997) Mol. Endocrinol. 11: 1365. The inducible form of the 70 kDa heat shock protein, hsp70, was uniquely detected using the SPA-810 monoclonal antibody (StressGen). GA induction of hsp70 was evident within 3 hours of GA treatment, was maximal upon 9 hours of GA treatment, and persisted for at least 12 hours in the presence of GA.

[2] = tested on: heat shock proteins in rat cardiomyocytes; conditions: cited from earlier work
[3] = tested on: hsp90-associated signaling molecules; conditions: other cultured cells; cited from earlier work
[4] = tested on: heat shock proteins in myogenic H9c2 cells; conditions: cited from earlier work
hsp70 in rat brain = assay: Western blot of hsp70 in rat hippocampus after intracranial ventricular injection; assay type: in vivo; conditions: 20 μg geldanamycin icv, 12 or 24 hours (FIGS. 5A, 5B)
Procedure: (§2) Geldanamycin was delivered to rat brain by intracranial ventricular (icv) injection as follows. Rats were stereotaxically fitted with 4 mm×22 gauge guide cannulae directed at the lateral ventricle (AP-2.0, ML+2.0). […] The injector was removed and replaced with a stylet. At 12 or 24 hours after injection, hippocampi were isolated from which whole cell extracts were prepared and subjected to Western blot analysis to visualize raf- 1 and actin, or hsp70. Negative and positive control protein samples for hsp70 were prepared from untreated or heat shocked HT22 cells. Western blot analysis is depicted in FIGS. 5A and 5B in which the (-) and (+) lanes refer to the negative and positive control samples.

hsp70 in fibroblasts = conditions: cited from earlier work
[5] = tested on: Male Sprague-Dawley rats (asphyxial cardiac arrest); assay type: in vivo, rat
Text: In rats, asphyxia produces circulatory arrest that can be reversed by mechanical ventilation and external chest compression (Katz et al. (1995) J. Cereb. Blood Flow Metab. 15:1032). […] Meaningful behavioral scores that predictable detect neurological deficits which closely mimic the types of deficits observed in patients that recover from cardiac arrest have been developed. Animal protocols were approved by the Institutional Animal Care and Use Committee of the University of Pittsburgh. Male Sprague-Dawley rats weighing 318±17 gm (Harlan, Indianapolis, Ind.) were anesthetized with 0.8% halothane in oxygen, endotracheally intubated using a 14 gauge angiocath, and mechanically ventilated using a Harvard rodent ventilator (0.9 cc/kg, 40 respirations/min). Blood pressure and arterial blood gases are monitored via a femoral arterial catheter (PE-50 tubing, IntraMedic), and drugs administered via a femoral venous catheter (PE-50). Tympanic temperature was maintained at 36.9±0.2° C. by manipulating an overhead 100 W lamp. After chemical paralysis with 2 mg/kg vecuronium and reducing the fraction of inspired oxygen to 0.21 (room air) mechanical ventilation was discontinued at end-expiration. Cardiac arrest (mean arterial pressure <10 mmHg) reliably occurred within 180 seconds. […]

hsp90 in HT22 cells = assay: Western blot of steady state hsp90 levels in HT22 cells; assay type: cell-based, mouse; conditions: 0.1 μg/ml GA
Procedure: as §1

raf-1 in rat brain = assay: Western blot of raf-1 in rat hippocampus after intracranial ventricular injection; assay type: in vivo; conditions: 20 μg geldanamycin icv, 12 or 24 hours (FIGS. 5A, 5B)
Procedure: as §2

HT22 cells [6] = assay: MTT viability assay of glutamate-treated HT22 cells; assay type: cell-based, mouse
Procedure: HT22 cells were seeded on 60 mm tissue culture dishes at 300,000 cells per dish and grown overnight. Cells were then incubated in the presence of 5 mM glutamate for 20 hours. […] In order to provide a more accurate assessment of glutamate-induced oxidative toxicity, the ability of HT22 cells to metabolize 3-(4,5-[…]-2-yl)-2,5-diphenyl tetrazolium bromide (MTT) was assayed. The reduction of this dye by viable cells can easily be detected spectrophotometrically as described by Mosman (1983) J. Immunol. Methods 65:55 with reduced HT22 cell viability directly correlated with decreased metabolism of MTT (Shubert et al. (1992) Proc. Natl. Acad. Sci. USA 89:8264). HT22 cells were seeded on 96-well plates at 5,000 cells per well and grown for 12 hours. Cells were then treated with 2 mM, 5 mM or 10 mM concentrations of glutamate. […] After a total incubation period of 20 hours, cell viability was measured using an MTT assay as described by Li et al. (1997) Neuron 19:453. Briefly, 10 μl of MTT solution (5 mg/ml) was added to each well and cells incubated for an additional 4 hours. 100 μl of solubilization solution (50% dimethylformamide and 20% SDS, pH 4.8) was added and left on the cells 5 overnight, after which light absorption at 570 nm was measured. Values (% Viability) represent the average of quadruplicate (FIG. 1) or triplicate (FIG. 2) determinations±S.D. Similar results were obtained in a replicate experiment. Cell viability was expressed relative to control cells treated with GA or Herb alone.

HT22 cells [7] = assay: Internucleosomal DNA cleavage (apoptosis) in HT22 cells; assay type: cell-based, mouse
Procedure: HT22 cells were treated with 5 mM glutamate (Glu) for 20 hours. […] Controls included HT22 cells not treated with Glu or GA and cells treated with GA alone.

COC1=C2C[C@@H](C)C[C@H](OC)[C@H](O)[C@@H](C)/C=C(\C)[C@H](OC(N)=O)[C@@H](OC)/C=C\C=C(/C)C(=O)NC(=CC1=O)C2=O [geldanamycin]
protection against simulated ischemia [1]: conferred protection against simulated ischemia
hsp70 induction by GA in the presence of glutamate (hsp70 in HT22 cells; 0.1 μg/ml GA + 5 mM glutamate): still able to induce hsp70
time GA-induced hsp70 levels are maintained in the presence of glutamate (hsp70 in HT22 cells; 0.1 μg/ml GA + 5 mM glutamate): up to 12 hours
persistence of hsp70 induction in the presence of GA (hsp70 in HT22 cells; 0.1 μg/ml GA, HT22 cells): at least 12 hours
time at which GA induction of hsp70 was evident (hsp70 in HT22 cells; 0.1 μg/ml GA, HT22 cells): ≤ 3 h
time of maximal GA induction of hsp70 (hsp70 in HT22 cells; 0.1 μg/ml GA, HT22 cells): 9 h
induction of hsp70 protein levels at higher doses of GA (hsp70 in HT22 cells; doses above 0.1 μg/ml, HT22 cells): not significantly enhanced at higher doses
induction of hsp70 compared with heat shock (hsp70 in HT22 cells; vs 60 minute 42° C. heat shock, 0.1 μg/ml GA): as effective as a 60 minute 42 °C heat shock
induction of hsp70 expression in rat cardiomyocytes [2]: induce hsp70 expression
overexpression of heat shock proteins in cardiomyocytes ([2]; pretreatment): overexpression of heat shock proteins
degradation of hsp90-associated signaling molecules [3]: selective degradation of hsp90-associated signaling molecules
induction of hsp70 expression in a myogenic cell line [4]: induce hsp70 expression
overexpression of heat shock proteins in myogenic H9c2 cells ([4]; pretreatment): overexpression of heat shock proteins
expression of hsp70 in rat brain (hsp70 in rat brain): increased expression of hsp70
induction of hsp70 expression in fibroblasts (hsp70 in fibroblasts): induce hsp70 expression
neurological deficit scores vs vehicle ([5]; GA 1.0 mg/kg iv after return of spontaneous circulation, n=5, scored at 24, 48, 72 hours, Kruskal-Wallace Chi-square=6.54, p<0.05 (FIG. 4)): lower in rats treated with GA (n=5) than in rats treated with vehicle
physiological variables during the resuscitation phase vs vehicle ([5]; GA 1.0 mg/kg iv, rats): did not differ between groups
steady state levels of hsp90 (hsp90 in HT22 cells): not affected
expression of raf-1 proto-oncogene in rat brain (raf-1 in rat brain): decreased expression of the raf-1 proto-oncogene
protection when GA is given following glutamate treatment (HT22 cells [6]; 0.1 μg/ml GA added after glutamate (FIG. 1)): retained its capacity to protect HT22 cells from oxidative stress
protection against glutamate cytotoxicity (MTT viability) (HT22 cells [6]; 0.1 μg/ml GA, 10 mM glutamate, 20 h): less effective at this higher dose of glutamate
protection against glutamate cytotoxicity (MTT viability) (HT22 cells [6]; 0.1 μg/ml GA, 2 and 5 mM glutamate, 20 h (FIG. 1)): effective protection
time after glutamate exposure at which protection by GA was still apparent (HT22 cells [6]; 0.1 μg/ml GA, 2 or 5 mM glutamate): 6 h
internucleosomal DNA cleavage, GA alone (HT22 cells [7]; 0.1 μg/ml GA alone): not subjected to this type of characteristic genomic DNA cleavage
block of glutamate-induced internucleosomal DNA cleavage (HT22 cells [7]; 0.1 μg/ml GA, 5 mM glutamate): able to block glutamate-induced internucleosomal DNA cleavage
